Measured values from PubChem BioAssay AID330 (DTP/NCI, 2004).
Values joined by “and” are separate entries in the source; they are usually repeats but may differ in a detail not shown here. Identical values can stand only once. Toxic doses and inconclusive results are not listed.

Tested on: P388 leukemia ip, CD2F1 mice, survival T/C
Test: NCI In Vivo Anticancer Drug Screen. Data for tumor model P388 Leukemia (intraperitoneal) in CD2F1 (CDF1) mice
Settings: endpoint: median survival time, higher = longer survival
Method in brief: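 Mice carrying the transplanted tumor received test compound or vehicle. Survival was recorded in each group, and the value is the treated-group measurement divided by that of the vehicle-treated control group.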

[1] = dose: 50.0 mg/kg/injection, schedule: Q01DX009 (ip), vehicle: saline with Tween-80
[2] = dose: 100.0 mg/kg/injection, schedule: Q01DX009 (ip), vehicle: saline with Tween-80

With `CCN(CC)c1ccc2c(cc1=O)[C@@H](NC(C)=O)CCc1cc(OC)c(OC)c(OC)c1-2` the T/C (dose: 0.39 mg/kg/injection, schedule: Q01DX009 (ip), vehicle: Klucel (hydroxypropylcellulose) (HPC)) was 103 % of control and 107 % of control and 120 % of control and the T/C (dose: 3.13 mg/kg/injection, schedule: Q01DX009 (ip), vehicle: Klucel (hydroxypropylcellulose) (HPC)) was 181 % of control.

`O=C(O)c1cccc(C(=O)O)c1I` was tested, and the T/C (dose: 100.0 mg/kg/injection, schedule: Q01DX001 (ip), vehicle: other) was 103 % of control, the T/C (dose: 200.0 mg/kg/injection, schedule: Q01DX001 (ip), vehicle: other) was 96 % of control and the T/C (dose: 400.0 mg/kg/injection, schedule: Q01DX001 (ip), vehicle: other) was 89 % of control.

With `O=C1Nc2ccccc2/C1=C\c1ccccc1O` the T/C (dose: 25.0 mg/kg/injection, schedule: Q01DX009 (ip), vehicle: Klucel (hydroxypropylcellulose) (HPC)) was 98 % of control, the T/C (dose: 50.0 mg/kg/injection, schedule: Q01DX009 (ip), vehicle: Klucel (hydroxypropylcellulose) (HPC)) was 96 % of control and the T/C (dose: 100.0 mg/kg/injection, schedule: Q01DX009 (ip), vehicle: Klucel (hydroxypropylcellulose) (HPC)) was 95 % of control. For the same compound, the T/C (dose: 200.0 mg/kg/injection, schedule: Q01DX009 (ip), vehicle: Klucel (hydroxypropylcellulose) (HPC)) was 98 % of control and the T/C (dose: 400.0 mg/kg/injection, schedule: Q01DX009 (ip), vehicle: Klucel (hydroxypropylcellulose) (HPC)) was 88 % of control.

With `NC(=O)c1cn(C2OC(CO)C(O)C2O)c2ncnc(N)c12` (configuration not stated) the T/C (dose: 0.06 mg/kg/injection, schedule: Q03HX024 (ip), vehicle: saline) was 105 % of control, the T/C (dose: 0.13 mg/kg/injection, schedule: Q01DX009 (ip), vehicle: saline) was 100 % of control and the T/C (dose: 0.13 mg/kg/injection, schedule: Q03HX008 (ip), vehicle: saline) was 111 % of control. The T/C (dose: 0.13 mg/kg/injection, schedule: Q03HX016 (ip), vehicle: saline) was 122 % of control, the T/C (dose: 0.13 mg/kg/injection, schedule: Q03HX024 (ip), vehicle: saline) was 111 % of control and the T/C (dose: 0.25 mg/kg/injection, schedule: Q01DX009 (ip), vehicle: saline) was 111 % of control. The T/C (dose: 0.25 mg/kg/injection, schedule: Q03HX008 (ip), vehicle: saline) was 111 % of control, the T/C (dose: 0.25 mg/kg/injection, schedule: Q03HX016 (ip), vehicle: saline) was 111 % of control and the T/C (dose: 0.25 mg/kg/injection, schedule: Q03HX024 (ip), vehicle: saline) was 111 % of control. For the same compound, the T/C (dose: 0.5 mg/kg/injection, schedule: Q01DX005 (ip), vehicle: saline with Tween-80) was 151 % of control, the T/C (dose: 0.5 mg/kg/injection, schedule: Q01DX009 (ip), vehicle: saline) was 105 % of control and the T/C (dose: 0.5 mg/kg/injection, schedule: Q01DX009 (ip), vehicle: suspension in saline) was 154 % of control. The T/C (dose: 0.5 mg/kg/injection, schedule: Q03HX008 (ip), vehicle: saline) was 111 % of control, the T/C (dose: 0.5 mg/kg/injection, schedule: Q03HX016 (ip), vehicle: saline) was 116 % of control and the T/C (dose: 0.5 mg/kg/injection, schedule: Q03HX024 (ip), vehicle: saline) was 111 % of control. For the same compound, the T/C (dose: 0.5 mg/kg/injection, schedule: Q04DX003 (ip), vehicle: saline) was 105 % of control, the T/C (dose: 1.0 mg/kg/injection, schedule: Q01DX001 (ip), vehicle: saline) was 111 % of control and the T/C (dose: 1.0 mg/kg/injection, schedule: Q01DX005 (ip), vehicle: saline with Tween-80) was 161 % of control. For the same compound, the T/C (dose: 1.0 mg/kg/injection, schedule: Q01DX009 (ip), vehicle: saline) was 111 % of control, the T/C (dose: 1.0 mg/kg/injection, schedule: Q01DX009 (ip), vehicle: suspension in saline) was 154 % of control and the T/C (dose: 1.0 mg/kg/injection, schedule: Q03HX008 (ip), vehicle: saline) was 94 % of control. For the same compound, the T/C (dose: 1.0 mg/kg/injection, schedule: Q03HX016 (ip), vehicle: saline) was 122 % of control, the T/C (dose: 1.0 mg/kg/injection, schedule: Q04DX003 (ip), vehicle: saline) was 116 % of control and the T/C (dose: 1.0 mg/kg/injection, schedule: Q08DX002 (ip), vehicle: saline) was 111 % of control. For the same compound, the T/C (dose: 2.0 mg/kg/injection, schedule: Q01DX001 (ip), vehicle: saline) was 111 % of control, the T/C (dose: 2.0 mg/kg/injection, schedule: Q01DX005 (ip), vehicle: saline with Tween-80) was 169 % of control and the T/C (dose: 2.0 mg/kg/injection, schedule: Q01DX009 (ip), vehicle: saline) was 100 % of control. The T/C (dose: 2.0 mg/kg/injection, schedule: Q01DX009 (ip), vehicle: suspension in saline) was 94 % of control, the T/C (dose: 2.0 mg/kg/injection, schedule: Q04DX003 (ip), vehicle: saline) was 111 % of control and the T/C (dose: 2.0 mg/kg/injection, schedule: Q08DX002 (ip), vehicle: saline) was 111 % of control. For the same compound, the T/C (dose: 4.0 mg/kg/injection, schedule: Q01DX001 (ip), vehicle: saline) was 122 % of control, the T/C (dose: 4.0 mg/kg/injection, schedule: Q04DX003 (ip), vehicle: saline) was 122 % of control and 118 % of control and the T/C (dose: 4.0 mg/kg/injection, schedule: Q08DX002 (ip), vehicle: saline) was 116 % of control. For the same compound, the T/C (dose: 8.0 mg/kg/injection, schedule: Q01DX001 (ip), vehicle: saline) was 111 % of control and the T/C (dose: 8.0 mg/kg/injection, schedule: Q08DX002 (ip), vehicle: saline) was 116 % of control.

`CNC(=S)N/N=C\C(C)=N/N1CCCCCC1` was tested, and the T/C (dose: 100.0 mg/kg/injection, schedule: Q04DX002 (ip), vehicle: saline) was 97 % of control, the T/C (dose: 200.0 mg/kg/injection, schedule: Q04DX002 (ip), vehicle: saline) was 101 % of control and the T/C (dose: 400.0 mg/kg/injection, schedule: Q04DX002 (ip), vehicle: saline) was 93 % of control.

For `NNC(=O)C1CC2CCCCC2CC1O` (configuration not stated), the T/C (dose: 100.0 mg/kg/injection, schedule: Q04DX002 (ip), vehicle: Klucel (hydroxypropylcellulose) (HPC)) was 101 % of control, the T/C (dose: 200.0 mg/kg/injection, schedule: Q04DX002 (ip), vehicle: Klucel (hydroxypropylcellulose) (HPC)) was 99 % of control and the T/C (dose: 400.0 mg/kg/injection, schedule: Q04DX002 (ip), vehicle: Klucel (hydroxypropylcellulose) (HPC)) was 108 % of control.

With `CC(C)(C#CC(C)(C)OC(=O)Nc1ccccc1)OC(=O)Nc1ccccc1` the T/C (dose: 100.0 mg/kg/injection, schedule: Q01DX009 (ip), vehicle: suspension in saline) was 95 % of control, the T/C (dose: 200.0 mg/kg/injection, schedule: Q01DX009 (ip), vehicle: suspension in saline) was 97 % of control and the T/C (dose: 400.0 mg/kg/injection, schedule: Q01DX009 (ip), vehicle: suspension in saline) was 107 % of control.

With `S=c1n(-c2ccc(Cl)cc2)c2nc3ccccc3nc(/c2=N\Nc2cc(Cl)ccc2Cl)n1-c1ccc(Br)cc1` the T/C (dose: 50.0 mg/kg/injection, schedule: Q01DX005 (ip), vehicle: saline with Tween-80) was 100 % of control, the T/C (dose: 100.0 mg/kg/injection, schedule: Q01DX005 (ip), vehicle: saline with Tween-80) was 105 % of control and the T/C (dose: 200.0 mg/kg/injection, schedule: Q01DX005 (ip), vehicle: saline with Tween-80) was 97 % of control.

With `c1ccc2c(c1)CN1Cc3ccccc3C2C1` the T/C [1] was 99 % of control, the T/C [2] was 93 % of control and the T/C (dose: 200.0 mg/kg/injection, schedule: Q01DX009 (ip), vehicle: saline with Tween-80) was 91 % of control.

For `Cc1cc(N=[N+]=[N-])c2ccc(Cl)cc2n1`, the T/C (dose: 60.0 mg/kg/injection, schedule: Q01DX005 (ip), vehicle: saline with Tween-80) was 94 % of control and the T/C (dose: 120.0 mg/kg/injection, schedule: Q01DX005 (ip), vehicle: saline with Tween-80) was 100 % of control.

With `Cc1ccc(C)c2c(C#Cc3ccccc3)c3ccccc3c(C#Cc3ccccc3)c12` the T/C (dose: 50.0 mg/kg/injection, schedule: Q01DX005 (ip), vehicle: Klucel (hydroxypropylcellulose) (HPC)) was 96 % of control, the T/C (dose: 100.0 mg/kg/injection, schedule: Q01DX005 (ip), vehicle: Klucel (hydroxypropylcellulose) (HPC)) was 90 % of control and the T/C (dose: 200.0 mg/kg/injection, schedule: Q01DX005 (ip), vehicle: Klucel (hydroxypropylcellulose) (HPC)) was 90 % of control.

`C1CC[N-]CC1.C1CC[N-]CC1.C1CC[N-]CC1.C1CC[N-]CC1.[Cl][Co][Cl]` was tested, and the T/C (dose: 25.0 mg/kg/injection, schedule: Q04DX003 (ip), vehicle: saline with Tween-80) was 100 % of control, the T/C (dose: 33.0 mg/kg/injection, schedule: Q01DX009 (ip), vehicle: saline with Tween-80) was 91 % of control and the T/C (dose: 100.0 mg/kg/injection, schedule: Q04DX003 (ip), vehicle: saline with Tween-80) was 118 % of control.

`N/C(=N\S(=O)(=O)c1cc(C(F)(F)F)cc(C(F)(F)F)c1)c1ccncc1` was tested, and the T/C [1] was 86 % of control and the T/C [2] was 90 % of control.

With `O=C1NC(=O)C2C1C1C3OC3C2C2C3C(=O)NC(=O)C3C12` (configuration not stated) the T/C (dose: 6.25 mg/kg/injection, schedule: Q01DX009 (ip), vehicle: saline with Tween-80) was 102 % of control, the T/C (dose: 12.5 mg/kg/injection, schedule: Q01DX009 (ip), vehicle: saline with Tween-80) was 116 % of control and the T/C (dose: 25.0 mg/kg/injection, schedule: Q01DX009 (ip), vehicle: saline with Tween-80) was 110 % of control. For the same compound, the T/C [2] was 168 % of control.

`CCOC(=O)C1=C(O)C(=O)C=C(O)C1=N` was tested, and the T/C (dose: 60.0 mg/kg/injection, schedule: Q01DX005 (ip), vehicle: saline) was 94 % of control, the T/C (dose: 120.0 mg/kg/injection, schedule: Q01DX005 (ip), vehicle: saline) was 94 % of control and the T/C (dose: 240.0 mg/kg/injection, schedule: Q01DX005 (ip), vehicle: saline) was 97 % of control.
